Laboratory results taken from US20060069132A1, “Azolecarboxamide herbicides” (priority 2004, published 2006).

How the values were obtained:
Test in all cases: Test C pre-/postemergence herbicide test
velvetleaf = assay type: in vivo, Abutilon theophrasti; conditions: for Velvetleaf plant response rating: Preemergence, 500 g ai/ha, scale 0 to 100, 0 no effect, 100 complete control
Summary of the method: (§1)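 Preemergence: seeds planted and treated with compound in non-phytotoxic solvent with surfactant; postemergence: plants at 2 to 18 cm (1- to 4-leaf stage) sprayed likewise. Kept in greenhouse 12 to 14 days, then visually rated against controls, 0 (no effect) to 100 (complete control).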

common ragweed = assay type: in vivo, Ambrosia elatior; parameters: key to Plant response rating, Ragweed: 0 = no effect, 100 = complete control; conditions: for Ragweed plant response rating: Preemergence, 500 g ai/ha, scale 0 to 100, 0 no effect, 100 complete control
Summary of the method: as §1

giant foxtail = assay type: in vivo, Setaria faberi; conditions: for Foxtail, Giant plant response rating: Preemergence, 500 g ai/ha, scale 0 to 100, 0 no effect, 100 complete control
Summary of the method: as §1

lambsquarters = assay type: in vivo, Chenopodium album; conditions: for Lambsquarters plant response rating: Preemergence, 500 g ai/ha, scale 0 to 100, 0 no effect, 100 complete control
Summary of the method: as §1

[1] = test system: common (oilseed) sunflower; assay type: in vivo, Helianthus annuus; conditions: for Sunflower plant response rating: Preemergence, 500 g ai/ha, scale 0 to 100, 0 no effect, 100 complete control
Summary of the method: as §1

kochia = assay type: in vivo, Kochia scoparia; conditions: for Kochia plant response rating: Preemergence, 500 g ai/ha, scale 0 to 100, 0 no effect, 100 complete control
Summary of the method: as §1

corn = assay type: in vivo, Zea mays; conditions: for Corn plant response rating: Preemergence, 500 g ai/ha, scale 0 to 100, 0 no effect, 100 complete control
Summary of the method: as §1

[2] = 62 g ai/ha, preemergence, scale 0 to 100
[3] = 125 g ai/ha, scale 0 (no effect) to 100 (complete control), visual, 12 to 14 days, preemergence
[4] = 250 g ai/ha, scale 0-100, preemergence

CCn1nc(C(C)(C)C)cc1C(=O)Nc1cc(C(=O)N(C)C)ccn1 [Compound 156, 2-[[[3-(1,1-dimethylethyl)-1-ethyl-1H-pyrazol-5-yl]carbonyl]amino]-N,N-dimethyl-4-pyridinecarboxamide]
pest or weed control at 62 g/ha (velvetleaf; Abutilon theophrasti, pre-emergence, 62 g ai/ha, preemergence, scale 0 to 100, read-out: Plant response rating, Velvetleaf): 43%
pest or weed control at 125 g/ha (velvetleaf; Abutilon theophrasti, pre-emergence, 125 g ai/ha, scale 0 (no effect) to 100 (complete control), visual, 12 to 14 days, read-out: Plant response rating, Velvetleaf): 63%
Velvetleaf plant response rating (velvetleaf): 100
pest or weed control at 62 g/ha (common ragweed; Ambrosia artemisiifolia, pre-emergence, 62 g ai/ha, preemergence, scale 0 to 100, read-out: Plant response rating, Ragweed): 90%
pest or weed control at 125 g/ha (common ragweed; Ambrosia artemisiifolia, pre-emergence, 125 g ai/ha, scale 0 (no effect) to 100 (complete control), visual, 12 to 14 days, read-out: Plant response rating, Ragweed): 100%
Ragweed plant response rating (common ragweed): 100
Foxtail, Giant plant response rating (giant foxtail): 95
pest or weed control at 62 g/ha (giant foxtail; Setaria faberi, pre-emergence, 312 h, 62 g ai/ha, preemergence, scale 0 to 100, read-out: Plant response rating, Foxtail, Giant): 75%
pest or weed control at 125 g/ha (giant foxtail; Setaria faberi, pre-emergence, 312 h, 125 g ai/ha, scale 0 (no effect) to 100 (complete control), visual, 12 to 14 days, read-out: Plant response rating, Foxtail, Giant): 83%
pest or weed control at 250 g/ha (giant foxtail; Setaria faberi, pre-emergence, 312 h, 250 g ai/ha, scale 0 to 100 (0 no effect, 100 complete control), visual, 12 to 14 days, read-out: Plant response rating, Foxtail, Giant): 85%
pest or weed control at 62 g/ha (lambsquarters; Chenopodium album, pre-emergence, 62 g ai/ha, preemergence, scale 0 to 100, read-out: Plant response rating, Lambsquarters): 100%
pest or weed control at 125 g/ha (lambsquarters; Chenopodium album, pre-emergence, 125 g ai/ha, scale 0 (no effect) to 100 (complete control), visual, 12 to 14 days, read-out: Plant response rating, Lambsquarters): 100%
Lambsquarters plant response rating (lambsquarters): 100
pest or weed control at 62 g/ha ([1]; Helianthus annuus, pre-emergence, 62 g ai/ha, preemergence, scale 0 to 100, read-out: Plant response rating, Sunflower): 25%
pest or weed control at 125 g/ha ([1]; Helianthus annuus, pre-emergence, 125 g ai/ha, scale 0 (no effect) to 100 (complete control), visual, 12 to 14 days, read-out: Plant response rating, Sunflower): 45%
Sunflower plant response rating [1]: 85
pest or weed control at 62 g/ha (kochia; Bassia scoparia, pre-emergence, 62 g ai/ha, preemergence, scale 0 to 100, read-out: Plant response rating, Kochia): 95%
pest or weed control at 125 g/ha (kochia; Bassia scoparia, pre-emergence, 125 g ai/ha, scale 0 (no effect) to 100 (complete control), visual, 12 to 14 days, read-out: Plant response rating, Kochia): 95%
Kochia plant response rating (kochia): 100
Corn plant response rating (corn): 50
Corn plant response rating (crop injury, 0 = no effect, 100 = complete kill) at 62 g/ha (corn; Zea mays, pre-emergence, 312 h, 62 g ai/ha, preemergence, scale 0 to 100): 15%
Corn plant response rating (crop injury, 0 = no effect, 100 = complete kill) at 125 g/ha (corn; Zea mays, pre-emergence, 312 h, 125 g ai/ha, scale 0 (no effect) to 100 (complete control), visual, 12 to 14 days): 38%
Corn plant response rating (crop injury, 0 = no effect, 100 = complete kill) at 250 g/ha (corn; Zea mays, pre-emergence, 312 h, 250 g ai/ha, scale 0 to 100 (0 no effect, 100 complete control), visual, 12 to 14 days): 40%

CCNC(=O)c1ccc(F)c(NC(=O)c2cn(C(C)(C)C)nc2CC)c1 [Compound 193]
Plant response rating, Velvetleaf (velvetleaf; [2]): 0
Plant response rating, Velvetleaf (velvetleaf; [3]): 0
Plant response rating, Velvetleaf (velvetleaf; [4]): 70
Velvetleaf plant response rating (velvetleaf): 100
Plant response rating, Ragweed (common ragweed; [2]): 0
Plant response rating, Ragweed (common ragweed; [3]): 100
Plant response rating, Ragweed (common ragweed; [4]): 100
Ragweed plant response rating (common ragweed): 100
Plant response rating, Foxtail, Giant (giant foxtail; [2]): 40
Plant response rating, Foxtail, Giant (giant foxtail; [3]): 50
Plant response rating, Foxtail, Giant (giant foxtail; [4]): 80
Foxtail, Giant plant response rating (giant foxtail): 100
Plant response rating, Lambsquarters (lambsquarters; [2]): 50
Plant response rating, Lambsquarters (lambsquarters; [3]): 100
Plant response rating, Lambsquarters (lambsquarters; [4]): 100
Lambsquarters plant response rating (lambsquarters): 100
Plant response rating, Sunflower [1, 2]: 0
Plant response rating, Sunflower [1, 3]: 0
Plant response rating, Sunflower [1, 4]: 0
Sunflower plant response rating [1]: 50
Plant response rating, Kochia (kochia; [2]): 85
Plant response rating, Kochia (kochia; [3]): 85
Plant response rating, Kochia (kochia; [4]): 100
Kochia plant response rating (kochia): 100
Plant response rating, Corn (corn; [2]): 10
Plant response rating, Corn (corn; [3]): 60
Plant response rating, Corn (corn; [4]): 95
Corn plant response rating (corn): 100
